Laboratory results: ChEMBL document CHEMBL1201862, “PubChem BioAssay data set” (2004)
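All cell lines were grown in 96-well plates and treated with compound for 48 hours. At the GI50, growth is halved.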 Activity calls are given as the source filed them. Cut-off read from the data, not from the text of the source: active = GI50 up to about 1.1 µM and inactive = higher.

Assays:
Test in all cases: DTP human tumour cell line panel, 48 h
[1] = test system: RPMI-8226
[2] = test system: DU-145
[3] = test system: NCI-H226
[4] = test system: NCI-H522
[5] = test system: SF-295
[6] = test system: MOLT-4
[7] = test system: NCI-H460
[8] = test system: OVCAR-5
[9] = test system: UO-31
[10] = test system: SK-MEL-28
[11] = test system: HCT-15
[12] = test system: IGROV-1
[13] = test system: SK-MEL-2
[14] = test system: MDA-N
[15] = test system: SNB-75
[16] = test system: MDA-MB-231
[17] = test system: MDA-MB-435
[18] = test system: CAKI-1
[19] = test system: SK-MEL-5
[20] = test system: CCRF-CEM

Row | SMILES | GI50 [1] | GI50 [2] | GI50 [3] | GI50 [4] | GI50 [5] | GI50 [6] | GI50 [7] | GI50 [8] | GI50 [9] | GI50 [10] | GI50 [11] | GI50 [12] | GI50 [13] | GI50 [14] | GI50 [15] | GI50 [16] | GI50 [17] | GI50 [18] | GI50 [19] | GI50 [20]
1 | CC1=CC2=C(C(N)=O)C(=O)OC2(C)C(c2ccccc2)C1 (stereo unspecified) | > 100 µM (inactive) | > 100 µM (inactive) | > 100 µM (inactive) | > 100 µM (inactive) | > 100 µM (inactive) | > 100 µM (inactive) | > 100 µM (inactive) | > 100 µM (inactive) | > 100 µM (inactive) | > 100 µM (inactive) | > 100 µM | > 100 µM (inactive) | > 100 µM (inactive) | > 100 µM (inactive) | 3.03 µM (inactive) | > 100 µM (inactive) | > 100 µM (inactive) |  |  | 
2 | CNC/C(Cl)=N/S(=O)(=O)c1ccc(C)cc1 | 6.61 µM (inactive) | 5.07 µM (inactive) | 19.5 µM (inactive) | 6.58 µM (inactive) | 14.7 µM (inactive) |  | 8.17 µM (inactive) | 21 µM (inactive) | 12.1 µM (inactive) | 31.6 µM (inactive) | 16.1 µM | 17.2 µM (inactive) | 15 µM (inactive) | 6.85 µM (inactive) | 5.18 µM (inactive) | 13.7 µM (inactive) | 6.15 µM (inactive) | 13.2 µM (inactive) | 15 µM (inactive) | 
3 | Cc1cc(C)nc(NS(=O)(=O)c2ccc(NC(=O)c3cc([N+](=O)[O-])cc([N+](=O)[O-])c3)cc2)n1 | 57.5 µM (inactive) | > 100 µM (inactive) | > 100 µM (inactive) |  |  | 1.79 µM (inactive) | 86.7 µM (inactive) |  | > 100 µM (inactive) | 99.8 µM (inactive) | > 100 µM | > 100 µM (inactive) | > 100 µM (inactive) | > 100 µM (inactive) | 15.6 µM (inactive) | > 100 µM (inactive) | > 100 µM (inactive) | > 100 µM (inactive) | 95.3 µM (inactive) | 59.7 µM (inactive)
4 | CCOP(=O)(OCC)c1cc(-c2ccccc2)ccc1N | > 100 µM (inactive) | > 100 µM (inactive) |  | 61.8 µM (inactive) | 92.3 µM (inactive) | > 100 µM (inactive) | > 100 µM (inactive) | > 100 µM (inactive) | > 100 µM (inactive) | > 100 µM (inactive) | > 100 µM | > 100 µM (inactive) | > 100 µM (inactive) | > 100 µM (inactive) | 81.7 µM (inactive) | > 100 µM (inactive) | > 100 µM (inactive) | > 100 µM (inactive) | > 100 µM (inactive) | > 100 µM (inactive)
5 | O=C1/C(=C/c2ccc(Cl)cc2)N=C(c2ccccc2)N1c1ccc(S(=O)(=O)Nc2nccs2)cc1 | 17.4 µM (inactive) | > 100 µM (inactive) | 52.1 µM (inactive) |  | 56.5 µM (inactive) | 33.2 µM (inactive) | 57.1 µM (inactive) | > 100 µM (inactive) | 23.6 µM (inactive) | 30.4 µM (inactive) | 37.5 µM |  | 16 µM (inactive) | 26 µM (inactive) | 39.5 µM (inactive) | 18.9 µM (inactive) | 23.6 µM (inactive) | > 100 µM (inactive) | 23.1 µM (inactive) | 27 µM (inactive)
6 | COc1ccc(S(=O)(=O)Nc2ccc(-c3csc(N4C(=O)/C(=C/c5ccccc5)N=C4c4ccccc4)n3)cc2)cc1Cl |  | 27.8 µM (inactive) | 33.2 µM (inactive) | 39 µM (inactive) | 41.7 µM (inactive) | 25.1 µM (inactive) | 31.3 µM (inactive) | 47.2 µM (inactive) | 5.62 µM (inactive) | 57.4 µM (inactive) | 20.2 µM | 38.6 µM (inactive) | 25.9 µM (inactive) | 38.7 µM (inactive) | 29.2 µM (inactive) | 16.1 µM (inactive) | 27.5 µM (inactive) | 62.8 µM (inactive) | 28.4 µM (inactive) | 43.5 µM (inactive)
7 | COc1c(O)cc2c(c1O)C(=O)C(Cc1ccc(O)cc1)CO2 (stereo unspecified) | 25.7 µM (inactive) | > 100 µM (inactive) |  | 80.7 µM (inactive) | 65.8 µM (inactive) | 44.5 µM (inactive) | 44.6 µM (inactive) | > 100 µM (inactive) | > 100 µM (inactive) | 59.7 µM (inactive) | 44 µM | > 100 µM (inactive) | > 100 µM (inactive) | 32.1 µM (inactive) | 5.79 µM (inactive) | > 100 µM (inactive) | 28 µM (inactive) | 78.9 µM (inactive) | 84.9 µM (inactive) | 
